Results taken from US9334269B2, “Carboxamides as inhibitors of voltage-gated sodium channels” (AMGEN INC., priority 2010, dated 2016).

Target: T1, human Nav1.7 (hNav1.7) (Homo sapiens, UniProt Q15858)
T1 construct: expressed in transfected cells
Assay: hNav1.7 whole-cell patch-clamp electrophysiology (automated PatchXpress 7000A or manual) in stably expressing 293 cells
Type: cell-based
Details: average IC50, human Nav1.7
Protocol: Compounds were tested on human Nav1.7 (hNav1.7) expressed stably in 293 cells, which have no endogenous sodium channels. Two forms of whole-cell patch-clamp assays were used. In both, peak current through Nav1.7 was evoked by a depolarizing voltage pulse, and currents were monitored as a function of time in response to exposure to several different concentrations of drug. Automated electrophysiology uses the PatchXpress 7000A system. Up to sixteen cells at a time were voltage-clamped in parallel, and the steady-state voltage dependence of inactivation was determined experimentally for each cell. For each cell, fractional inactivation was set at 20%, and peak current through Nav1.7 as a function of time was measured in response to increasing concentrations of test compound. Manual electrophysiology refers to conventional whole-cell patch-clamping (Hamill et al., 1981). After formation of the whole-cell clamp, cells were lifted off the bottom of the dish with the patch pipette and positioned directly in front of an array of glass microperfusion tubes each with internal diameter about 250 microns, with individual compound concentrations flowing from each tube. Current as a function of time in response to increasing drug concentrations was measured with Nav1.7 fully in the resting state (holding voltage set to −140 mV) and on the same cells with the holding voltage set to produce about 20% inactivation. Compounds were not applied for a prespecified time, but for as long as required to achieve a stable level of block. For both forms of electrophysiology, offline analysis was used to correct for rundown of channel current and to determine percent inhibition as a function of drug concentration. IC50 were determined by fitting to the Hill equation.

T1 sequence (Q15858 whole entry): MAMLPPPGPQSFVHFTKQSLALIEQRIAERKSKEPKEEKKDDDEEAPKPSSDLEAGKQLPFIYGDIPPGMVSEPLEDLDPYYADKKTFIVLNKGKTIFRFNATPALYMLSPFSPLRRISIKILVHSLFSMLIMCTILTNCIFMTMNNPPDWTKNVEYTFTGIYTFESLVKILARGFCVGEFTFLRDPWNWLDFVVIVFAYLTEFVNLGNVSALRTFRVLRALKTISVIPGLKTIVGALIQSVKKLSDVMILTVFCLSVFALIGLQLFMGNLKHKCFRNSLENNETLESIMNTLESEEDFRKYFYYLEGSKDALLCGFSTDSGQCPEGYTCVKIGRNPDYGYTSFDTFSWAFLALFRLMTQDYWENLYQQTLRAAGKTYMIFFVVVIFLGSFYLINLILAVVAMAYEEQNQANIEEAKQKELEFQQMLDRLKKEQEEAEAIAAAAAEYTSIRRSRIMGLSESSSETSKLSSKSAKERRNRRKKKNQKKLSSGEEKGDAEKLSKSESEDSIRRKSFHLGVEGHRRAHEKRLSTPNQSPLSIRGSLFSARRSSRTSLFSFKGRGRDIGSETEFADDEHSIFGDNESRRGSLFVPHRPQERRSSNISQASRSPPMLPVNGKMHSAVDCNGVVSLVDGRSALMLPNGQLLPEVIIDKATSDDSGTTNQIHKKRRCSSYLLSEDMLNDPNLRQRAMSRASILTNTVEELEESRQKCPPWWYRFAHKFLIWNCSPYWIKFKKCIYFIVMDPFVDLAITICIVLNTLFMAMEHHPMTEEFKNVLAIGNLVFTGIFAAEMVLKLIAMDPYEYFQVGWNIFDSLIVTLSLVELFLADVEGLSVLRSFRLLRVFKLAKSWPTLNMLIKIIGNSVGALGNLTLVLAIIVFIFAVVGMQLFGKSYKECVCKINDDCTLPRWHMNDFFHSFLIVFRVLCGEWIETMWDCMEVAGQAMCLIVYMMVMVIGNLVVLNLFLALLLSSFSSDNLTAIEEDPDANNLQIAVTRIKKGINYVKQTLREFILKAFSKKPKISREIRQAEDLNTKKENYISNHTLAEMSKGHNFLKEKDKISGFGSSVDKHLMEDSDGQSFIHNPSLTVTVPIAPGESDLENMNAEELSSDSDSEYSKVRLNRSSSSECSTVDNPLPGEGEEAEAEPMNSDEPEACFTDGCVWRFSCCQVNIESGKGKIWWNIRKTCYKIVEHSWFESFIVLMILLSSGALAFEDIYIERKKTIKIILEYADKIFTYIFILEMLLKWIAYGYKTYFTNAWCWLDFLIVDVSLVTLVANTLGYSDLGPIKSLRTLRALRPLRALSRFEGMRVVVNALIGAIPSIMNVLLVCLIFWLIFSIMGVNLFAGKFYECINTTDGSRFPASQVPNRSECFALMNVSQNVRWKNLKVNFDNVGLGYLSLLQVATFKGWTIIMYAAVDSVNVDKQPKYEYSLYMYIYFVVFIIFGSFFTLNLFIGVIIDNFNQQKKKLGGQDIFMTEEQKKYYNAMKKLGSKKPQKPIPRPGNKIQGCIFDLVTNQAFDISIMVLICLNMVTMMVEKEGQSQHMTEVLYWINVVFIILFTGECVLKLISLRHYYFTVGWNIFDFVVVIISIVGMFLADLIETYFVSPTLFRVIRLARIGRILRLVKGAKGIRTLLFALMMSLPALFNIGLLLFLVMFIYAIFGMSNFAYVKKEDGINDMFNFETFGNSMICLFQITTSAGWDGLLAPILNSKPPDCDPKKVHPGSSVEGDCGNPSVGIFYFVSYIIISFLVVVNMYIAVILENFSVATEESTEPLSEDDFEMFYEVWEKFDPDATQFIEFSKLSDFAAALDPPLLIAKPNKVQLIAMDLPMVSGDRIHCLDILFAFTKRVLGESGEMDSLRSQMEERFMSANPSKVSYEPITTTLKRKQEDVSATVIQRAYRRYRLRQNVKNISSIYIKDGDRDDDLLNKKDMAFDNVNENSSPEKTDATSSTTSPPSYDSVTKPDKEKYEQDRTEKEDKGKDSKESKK

Row | Structure (SMILES) | IC50 [µM]
1 | CNC(=O)c1cccc(Nc2nccc(N3CC(Oc4ccc(F)c(F)c4)C3)n2)c1 [Example 106] | 1.6
2 | CNC(=O)c1cccc(Nc2nccc(N3CC(Oc4ccc(F)cc4F)C3)n2)c1 [Example 125] | 2.16
3 | CNC(=O)c1cccc(Nc2ncnc(N3CC(COc4ccc(Cl)cc4Cl)C3)n2)c1 [Example 132] | 2.55
4 | CNC(=O)c1cccc(Nc2ncnc(N3CC=C(c4ccc(C)c(C)c4)CC3)n2)c1 [Example 133] | 2.55
5 | CNC(=O)c1cccc(Nc2ncnc(N3CC(Oc4cccc(C(C)(C)C)c4)C3)n2)c1 [Example 134] | 2.58
6 | CNC(=O)c1cccc(Nc2ncnc(N3CCC(c4ccc(OC(F)(F)F)cc4)CC3)n2)c1 [Example 135] | 2.59
7 | CNC(=O)c1cccc(Nc2ncnc(N3CC=C(c4ccc(OC(F)(F)F)cc4)CC3)n2)c1 [Example 136] | 2.72
8 | CNC(=O)c1cccc(Nc2ncnc(N3CCc4c(cccc4OCC(F)(F)F)C3)n2)c1 [Example 137] | 2.73
9 | CNC(=O)c1cccc(Nc2ncnc(N3CCc4c(cccc4OC)C3)n2)c1 [Example 138] | 2.74
10 | CNC(=O)c1cccc(Nc2ncnc(N3CCC(n4cc(-c5ccccc5)cn4)CC3)n2)c1 [Example 139] | 2.74
11 | CNC(=O)c1cccc(Nc2ncnc(N3CCC(c4nc(-c5ccccc5)no4)CC3)n2)c1 [Example 140] | 2.79
12 | CNC(=O)c1cccc(Nc2ncnc(N3CC(Oc4ccccc4C(F)(F)F)C3)n2)c1 [Example 141] | 2.79
13 | CNC(=O)c1cccc(Nc2ncnc(N3CCc4c(Cl)cccc4C3)n2)c1 [Example 142] | 2.8
14 | CNC(=O)c1cccc(Nc2ncnc(N3CCC(COc4ccccc4)CC3)n2)c1 [Example 143] | 2.8
15 | CNC(=O)c1cccc(Nc2ncnc(N3CCc4c(cnn4-c4ccc(Cl)cc4)C3)n2)c1 [Example 144] | 2.87
16 | CNC(=O)c1cccc(Nc2ncnc(N3CCC(Oc4ccc(Cl)cc4)CC3)n2)c1 [Example 145] | 2.9
17 | CNC(=O)c1cc(F)cc(Nc2ncnc(N3CCC(Oc4ccc(OC(F)(F)F)cc4)CC3)n2)c1 [Example 146] | 2.91

Row | Structure (SMILES) | IC50 [µM]
18 | CNC(=O)c1cccc(Nc2ncnc(N3CCC(C#N)(c4ccc(Cl)cc4)CC3)n2)c1 [Example 147] | 2.92
19 | CNC(=O)c1cccc(Nc2ncnc(N3CC(Oc4ccc(F)cc4F)C3)n2)c1 [Example 148] | 2.95
20 | CNC(=O)c1cccc(Nc2ncnc(N3CC(Oc4ccc(C(C)(C)C)cc4)C3)n2)c1 [Example 149] | 2.99
21 | CNC(=O)c1cccc(Nc2ncnc(N3CCC(OCc4ccc(C(F)(F)F)cc4)CC3)n2)c1 [Example 150] | 3.03
22 | CNC(=O)c1cccc(Nc2ncnc(N3CCC(Cc4ccc(F)c(F)c4)CC3)n2)c1 [Example 151] | 3.1
23 | CNC(=O)c1cccc(Nc2ncnc(NCCCOc3ccc(Cl)cc3)n2)c1 [Example 152] | 3.1
24 | CNC(=O)c1cccc(Nc2ncnc(N3CC(Oc4c(F)cc(Cl)cc4F)C3)n2)c1 [Example 153] | 3.16
25 | CNC(=O)c1cccc(Nc2ncnc(N3CC(Oc4cc(C)ccc4F)C3)n2)c1 [Example 155] | 3.17
26 | CNC(=O)c1cccc(Nc2ncnc(NCCCOc3ccc(OC(F)(F)F)cc3)n2)c1C [Example 156] | 3.34
27 | CNC(=O)c1cccc(Nc2ncnc(N3CCN(c4ccc(Cl)cc4)CC3)n2)c1 [Example 157] | 3.36
28 | CNC(=O)c1cccc(Nc2ncnc(N3CC(COc4ccc(Cl)c(Cl)c4)C3)n2)c1 [Example 158] | 3.5
29 | CNC(=O)c1cccc(Nc2ncnc(N3CCN(c4ccc(OC)cc4)CC3)n2)c1 [Example 159] | 3.5
30 | CNC(=O)c1ccc(C)c(Nc2ncnc(N3CC(Oc4ccc(F)cc4)C3)n2)c1 [Example 160] | 3.65
31 | CNC(=O)c1c(F)ccc(Nc2ncnc(N3CC(COc4ccc(Cl)cc4)C3)n2)c1F [Example 161] | 3.67
32 | CNC(=O)c1cc(Nc2ncnc(N3CC(Oc4ccc(Cl)cc4)C3)n2)ccc1Cl [Example 162] | 3.69
33 | CNC(=O)c1cccc(Nc2ncnc(N3CC(COc4ccc(F)cc4)C3)n2)c1 [Example 163] | 3.71

Further compounds by falling IC50, results first:

Row | IC50 [µM] | Structure (SMILES)
34 | 2.49 | CNC(=O)c1cccc(Nc2ncnc(N3CCC(OCc4ccc(OC(F)(F)F)cc4)CC3)n2)c1 [Example 131]
35 | 2.44 | CNC(=O)c1cccc(Nc2ncnc(N3CCc4cc(Cl)ccc4C3)n2)c1 [Example 130]
36 | 2.37 | CNC(=O)c1ccc(Cl)c(Nc2ncnc(N3CC(Oc4ccc(F)cc4)C3)n2)c1 [Example 129]
37 | 2.31 | CCn1c2c(c3ccccc31)CN(c1ncnc(Nc3cccc(C(=O)NC)c3)n1)CC2 [Example 127]
38 | 2.31 | CNC(=O)c1cccc(Nc2ncnc(N3CC(Oc4ccc(C#N)c(Cl)c4)C3)n2)c1 [Example 128]
39 | 2.29 | CNC(=O)c1cccc(Nc2ncnc(N3CCN(S(=O)(=O)c4ccc(OC(F)(F)F)cc4)CC3)n2)c1 [Example 126]
40 | 2.16 | CNC(=O)c1cccc(Nc2ncnc(N3CCC(C#Cc4ccccc4)CC3)n2)c1 [Example 124]
41 | 2.13 | CNC(=O)c1cccc(Nc2ncnc(N3CCc4c(cccc4OC(F)(F)F)C3)n2)c1 [Example 123]
42 | 2.1 | CNC(=O)c1cccc(Nc2ncnc(N3CCC(Oc4cccc(Cl)c4)CC3)n2)c1 [Example 122]
43 | 2.09 | CNC(=O)c1cccc(Nc2ncnc(N[C@H](C)CCc3ccccc3)n2)c1 [Example 120]
44 | 2.09 | CNC(=O)c1cc(F)cc(Nc2ncnc(N3CC(Oc4ccc(F)c(Cl)c4)C3)n2)c1 [Example 121]
45 | 2.07 | CNC(=O)c1cccc(Nc2ncnc(N3CCC(Oc4cccc(OC(F)(F)F)c4)CC3)n2)c1 [Example 119]
46 | 2.02 | CNC(=O)c1cccc(Nc2ncnc(N3CCC(Oc4ccc(C(F)(F)F)cc4)CC3)n2)c1 [Example 118]
47 | 2 | CNC(=O)c1cc(F)cc(Nc2ncnc(N3CCN(c4cccc(C)n4)CC3)n2)c1 [Example 116]
48 | 2 | CNC(=O)c1cccc(Nc2ncnc(N3CCC(c4ccc(C)c(C)c4)CC3)n2)c1 [Example 117]
49 | 1.87 | CNC(=O)c1cccc(Nc2ncnc(N3CCN(c4ccccc4)CC3)n2)c1 [Example 115]
50 | 1.83 | CNC(=O)c1cccc(Nc2ncnc(N3CCN(c4cccc(C)c4)CC3)n2)c1 [Example 114]
51 | 1.82 | CNC(=O)c1cccc(Nc2ncnc(N3CC(OCc4ccc(Cl)cc4)C3)n2)c1 [Example 113]
52 | 1.78 | CNC(=O)c1cc(F)cc(Nc2ncnc(N3CC(COc4ccc(C(F)(F)F)cc4)C3)n2)c1 [Example 112]
53 | 1.69 | CNC(=O)c1cccc(Nc2ncnc(N3CC(Oc4cccc(OC(F)(F)F)c4)C3)n2)c1 [Example 111]
54 | 1.67 | CNC(=O)c1cccc(Nc2ncnc(N3CCc4cc(OC(F)(F)F)ccc4C3)n2)c1 [Example 110]

Row | IC50 [µM] | Structure (SMILES)
55 | 1.63 | CNC(=O)c1cccc(Nc2ncnc(N3CCN(CCc4ccccc4)CC3)n2)c1 [Example 109]
56 | 1.61 | CNC(=O)c1cccc(Nc2ncnc(N3CCCN(c4ncc(C(F)(F)F)cc4Cl)CC3)n2)c1 [Example 107]
57 | 1.61 | CNC(=O)c1cccc(Nc2ncnc(N3CCN(c4ccc(Cl)cn4)CC3)n2)c1 [Example 108]
58 | 1.58 | CNC(=O)c1cccc(Nc2ncnc(N3CC(COc4ccc(Cl)cc4F)C3)n2)c1 [Example 105]
59 | 1.57 | CNC(=O)c1cccc(Nc2ncnc(N3CC(Oc4cccc(Cl)c4Cl)C3)n2)c1 [Example 104]
60 | 1.56 | CNC(=O)c1cc(F)cc(Nc2ncnc(N3CCC(c4nc(-c5ccccc5)cs4)CC3)n2)c1 [Example 103]
61 | 1.51 | CCNC(=O)c1cccc(Nc2ncnc(N3CC(Oc4ccc(F)cc4)C3)n2)c1 [Example 102]
62 | 1.44 | CNC(=O)c1cccc(Nc2ncnc(N3CCC(Oc4ccc(OCC(F)(F)F)cc4)CC3)n2)c1 [Example 101]
63 | 1.43 | CNC(=O)c1cccc(Nc2ncnc(N3CC=C(c4ccc(C#N)cc4)CC3)n2)c1 [Example 99]
64 | 1.41 | CNC(=O)c1cc(F)cc(Nc2ncnc(N3CC(Oc4ccc(F)cc4)C3)n2)c1 [Example 98]
65 | 1.4 | CNC(=O)c1cc(Nc2ncnc(N3CC(Oc4ccc(F)c(Cl)c4)C3)n2)ccc1Cl [Example 97]
66 | 1.39 | CNC(=O)c1cc(Nc2ncnc(N3CC(COc4ccc(C(F)(F)F)cc4)C3)n2)ccc1Cl [Example 96]
67 | 1.35 | CNC(=O)c1cccc(Nc2ncnc(N3CCN(c4ccccc4F)CC3)n2)c1 [Example 95]
68 | 1.32 | CNC(=O)c1cccc(Nc2ncnc(N3CC(OCc4ccc(OC(F)(F)F)cc4)C3)n2)c1 [Example 94]
69 | 1.3 | CNC(=O)c1cccc(Nc2ncnc(N3CCC(COc4ccc(F)c(F)c4)CC3)n2)c1 [Example 93]
70 | 1.29 | CNC(=O)c1cccc(Nc2ncnc(N3CC(COc4ccc(Cl)c(F)c4)C3)n2)c1 [Example 91]
71 | 1.29 | CNC(=O)c1cccc(Nc2ncnc(N3CCc4cc(C5CC5)ccc4C3)n2)c1 [Example 92]
72 | 1.26 | CNC(=O)c1cccc(Nc2ncnc(N3CCN(c4ccccc4C)CC3)n2)c1 [Example 89]
73 | 1.26 | CNC(=O)c1cc(Nc2ncnc(N3CC(COc4ccc(Cl)cc4)C3)n2)ccc1Cl [Example 90]
74 | 1.24 | CNC(=O)c1cccc(Nc2ncnc(N3CCC(C(=O)c4ccccc4)CC3)n2)c1 [Example 88]
